Source: patent publication US20030130180A1, “Utilization of an aminopeptidase inhibitor” (priority 2000, published 2003)

System: Karpas cells
Experiment: Detection of surface protein combinations of the protein network on untreated (V1) and actinonin-treated (V2) Karpas cells
Format: cell-based
Settings: for V2 no. of cells / V2 no. of cells In 1/1OOO: actinonin-treated Karpas cells
From the text: Principally, detecting of the surface protein combinations may comprise procedural steps of an automated method for determining molecular classes, molecular groups or molecular parts in a solid or liquid object according to DE 197 09 348 C. In these steps, surface proteins may be examined and measured in one and the same object, i.e. in a sample of immune cells and/or tumor cells for example, by sequentially applying reagent solutions Yn (n=1,2,3, . . . N) by means of an automated apparatus, said procedural steps being: I. taking a first reagent solution Y1 from a vessel containing the reagent solution, II. applying said reagent solution Y1 to the object which is on an object slide, III. allowing the reagent solution to react for an automatically set period of time, IV. recording at least one individual labeling pattern of the object previously labeled with said first reagent solution Y1, V. repeating steps I-IV by applying said first reagent solution Y1 or a second reagent solution Y2 or a mixture of said first and second reagent solutions, and VI. repeating steps I to V with further reagent solutions Yn (n=2,3, . . . N) or a mixture thereof and whereby the labeling distribution patterns obtained in each cycle of the method are turned into a complex molecular combination pattern of the object to be examined by computer-aided image overlay. From this combination pattern, information may be gained on the presence of the above mentioned proteins, thus also allowing detection of the surface protein combinations, if the reagent solutions used contain labeled substances directed against the proteins in question. In numerous examinations, it was possible to identify the 30 cell surface proteins already listed above which belong to a specific protein network controlling the early polarization stages of tumor cells and immune cells. In a further examination, surface protein combinations of this protein network of Karpas cells were detected, both in untreated form and after treatment with the aminopeptidase inhibitor actinonin. For this purpose, two groups V1 and V2 of Karpas cells were formed, with the cells of group Vl remaining untreated, while the cells of group V2 were treated with actinonin. Table 2 lists those surface protein combinations which are present both in the actinonin-treated cells and in the untreated cells. However, this table and the further tables 3 and 4 only give examples of 18 of the 30 proteins, with the detected proteins being designated 1 and the non-detected proteins being designated 0. The proteins are continuously numbered 1 to 18, with the nomenclature being notable from table 1. [table] The cell numbers stated in tables 2 to 4 refer to each 1,000 cells examined in groups V1 and V2. Table 3 lists the surface protein combinations which only occur in the untreated Karpas cells and are never found in the actinonin-treated Karpas cells. The number of protein combinations listed in this table 3 amounts to 131. Finally, table 4 exclusively lists those surface protein combinations which occur exclusively in the actinonin-treated Karpas cells. It may be gathered from tables 2 to 4 that, if one examines merely 18 proteins of the 30 proteins, a total of 394 different surface protein combinations will occur, with a total of 334 different combinations occurring in the untreated cells and a total of 263 different combinations being detected in the treated cells.

CCCCC[C@H](CC(=O)NO)C(=O)N[C@H](C(=O)N1CCC[C@H]1CO)C(C)C [actinonin]
V2 no. of cells (protein code No. 54, proteins 1-18 binary 011000001100001100): 1.5 1/1OOO
V2 no. of cells (protein code No. 55, proteins 1-18 binary 001000010100001000): 2.0 1/1OOO
V2 no. of cells (protein code No. 57, proteins 1-18 binary 101100110111011000): 2.4 1/1OOO
V2 no. of cells (protein code No. 58 (first line so numbered), proteins 1-18 binary 001100011101001000): 1.7 1/1OOO
V2 no. of cells (protein code No. 58 (second line so numbered), proteins 1-18 binary 000000011101000000): 2.9 1/1OOO
V2 no. of cells (protein code No. 59, proteins 1-18 binary 101100010111001000): 1.5 1/1OOO
V2 no. of cells (protein code No. 60, proteins 1-18 binary 001000000101001000): 1.5 1/1OOO
V2 no. of cells (protein code No. 61, proteins 1-18 binary 000000010111001000): 1.6 1/1OOO
V2 no. of cells (protein code No. 62, proteins 1-18 binary 001000000001001000): 0.6 1/1OOO
V2 no. of cells (protein code No. 63, proteins 1-18 binary 000000010100001000): 1.6 1/1OOO
V2 no. of cells (protein code No. 64, proteins 1-18 binary 000000011001000000): 2.1 1/1OOO
V2 no. of cells (protein code No. 65, proteins 1-18 binary 000000000011000000): 0.7 1/1OOO
V2 no. of cells (protein code No. 66, proteins 1-18 binary 101000010101011000): 1.0 1/1OOO
V2 no. of cells (protein code No. 67, proteins 1-18 binary 001100011111011000): 1.8 1/1OOO
V2 no. of cells (protein code No. 68, proteins 1-18 binary 000000000010000000): 0.1 1/1OOO
V2 no. of cells (protein code No. 69, proteins 1-18 binary 001000000011000000): 1.2 1/1OOO
V2 no. of cells (protein code No. 70, proteins 1-18 binary 010000001100000100): 1.5 1/1OOO
V2 no. of cells In 1/1OOO (surface protein combination No. 93, binary code 011100011101001000): 0.7 1/1OOO
V2 no. of cells In 1/1OOO (surface protein combination No. 94, binary code 000000011000000000): 1.0 1/1OOO
V2 no. of cells In 1/1OOO (surface protein combination No. 95, binary code 000000001101000000): 1.4 1/1OOO
V2 no. of cells In 1/1OOO (surface protein combination No. 96, binary code 001100011101011000): 0.3 1/1OOO
V2 no. of cells In 1/1OOO (surface protein combination No. 97, binary code 011000011101001100): 0.7 1/1OOO
V2 no. of cells In 1/1OOO (surface protein combination No. 98, binary code 011000011100001100): 0.9 1/1OOO
V2 no. of cells In 1/1OOO (surface protein combination No. 99, binary code 000000011101001000): 0.9 1/1OOO
V2 no. of cells In 1/1OOO (surface protein combination No. 100, binary code 010000001000000000): 0.3 1/1OOO
V2 no. of cells In 1/1OOO (surface protein combination No. 101, binary code 010000011101000000): 0.5 1/1OOO
V2 no. of cells In 1/1OOO (surface protein combination No. 102, binary code 001100010101011100): 0.6 1/1OOO
V2 no. of cells In 1/1OOO (surface protein combination No. 103, binary code 011000011001000000): 0.7 1/1OOO
V2 no. of cells In 1/1OOO (surface protein combination No. 104, binary code 001000001001000000): 0.8 1/1OOO
V2 no. of cells In 1/1OOO (surface protein combination No. 105, binary code 000000010111000000): 0.9 1/1OOO
V2 no. of cells In 1/1OOO (surface protein combination No. 107, binary code 000100010001001000): 0.2 1/1OOO
V2 no. of cells In 1/1OOO (surface protein combination No. 109, binary code 000100000000000000): 0.6 1/1OOO
V2 no. of cells In 1/1OOO (surface protein combination No. 110, binary code 011000011111001000): 0.8 1/1OOO
V2 no. of cells In 1/1OOO (surface protein combination No. 111, binary code 001000000100000000): 0.8 1/1OOO
V2 no. of cells In 1/1OOO (surface protein combination No. 112, binary code 101000010111001000): 0.2 1/1OOO
V2 no. of cells In 1/1OOO (surface protein combination No. 113, binary code 011000011111011000): 0.2 1/1OOO
V2 no. of cells In 1/1OOO (surface protein combination No. 114, binary code 011000001100000000): 0.2 1/1OOO
V2 no. of cells In 1/1OOO (surface protein combination No. 115, binary code 001000000111001000): 0.3 1/1OOO
V2 no. of cells In 1/1OOO (surface protein combination No. 116, binary code 101100010101001000): 0.6 1/1OOO
V2 no. of cells In 1/1OOO (surface protein combination No. 117, binary code 101100010011011000): 0.6 1/1OOO
V2 no. of cells In 1/1OOO (surface protein combination No. 118, binary code 101100110111011100): 0.7 1/1OOO
V2 no. of cells In 1/1OOO (surface protein combination No. 119, binary code 000000010010000000): 0.1 1/1OOO
V2 no. of cells In 1/1OOO (surface protein combination No. 120, binary code 011100011111011000): 0.2 1/1OOO
V2 no. of cells In 1/1OOO (surface protein combination No. 121, binary code 001000011011001000): 0.2 1/1OOO
V2 no. of cells In 1/1OOO (surface protein combination No. 122, binary code 011000001100000100): 0.3 1/1OOO
V2 no. of cells In 1/1OOO (surface protein combination No. 123, binary code 000000001100001000): 0.3 1/1OOO
V2 no. of cells In 1/1OOO (surface protein combination No. 124, binary code 110000001100001100): 0.5 1/1OOO
V2 no. of cells In 1/1OOO (surface protein combination No. 125, binary code 010000011100001000): 0.5 1/1OOO
V2 no. of cells In 1/1OOO (surface protein combination No. 126, binary code 001000110111011000): 0.5 1/1OOO
V2 no. of cells In 1/1OOO (surface protein combination No. 127, binary code 001000011111000000): 0.5 1/1OOO
V2 no. of cells In 1/1OOO (surface protein combination No. 128, binary code 111000001100001100): 0.7 1/1OOO
V2 no. of cells In 1/1OOO (surface protein combination No. 129, binary code 011000011100001000): 0.7 1/1OOO
V2 no. of cells In 1/1OOO (surface protein combination No. 130, binary code 101100010101011100): 0.2 1/1OOO
V2 no. of cells In 1/1OOO (surface protein combination No. 131, binary code 101000010101001000): 0.3 1/1OOO
V2 no. of cells In 1/1OOO (surface protein combination No. 134, binary code 010000011100001100): 0.5 1/1OOO
V2 no. of cells In 1/1OOO (surface protein combination No. 135, binary code 010000011100000000): 0.5 1/1OOO
V2 no. of cells In 1/1OOO (surface protein combination No. 136, binary code 001100010101001100): 0.5 1/1OOO
V2 no. of cells In 1/1OOO (surface protein combination No. 137, binary code 001100000000001000): 0.5 1/1OOO
V2 no. of cells In 1/1OOO (surface protein combination No. 138, binary code 000000001001001000): 0.6 1/1OOO
V2 no. of cells In 1/1OOO (surface protein combination No. 139, binary code 011000001101000000): 0.1 1/1OOO
V2 no. of cells In 1/1OOO (surface protein combination No. 140, binary code 000000000011001000): 0.1 1/1OOO
V2 no. of cells In 1/1OOO (surface protein combination No. 141, binary code 101000010111011100): 0.2 1/1OOO
V2 no. of cells In 1/1OOO (surface protein combination No. 142, binary code 001100000101001000): 0.2 1/1OOO
V2 no. of cells In 1/1OOO (surface protein combination No. 143, binary code 011100011111001000): 0.3 1/1OOO
V2 no. of cells In 1/1OOO (surface protein combination No. 144, binary code 001100010111000000): 0.3 1/1OOO
V2 no. of cells In 1/1OOO (surface protein combination No. 145, binary code 001000000100001000): 0.3 1/1OOO
V2 no. of cells In 1/1OOO (surface protein combination No. 146, binary code 011000011001001000): 0.5 1/1OOO
V2 no. of cells In 1/1OOO (surface protein combination No. 147, binary code 111100011100011100): 0.1 1/1OOO
V2 no. of cells In 1/1OOO (surface protein combination No. 148, binary code 110000001100011100): 0.1 1/1OOO
V2 No. of cells In 1/1000, total (total over the 60 combinations occurring exclusively in actinonin-treated Karpas cells): 9.1 1/1000
